From US20250296960A1, “PEPTIDE COMPOSITIONS AND METHODS OF USE THEREOF” (priority 2022, published 2025)
Numbered stars: 1 amine (or outer) side, 2 acyl side, 3 side chain; on linkers, the order of the positions; unused ones are H or OH. Square brackets hold non-standard residues; d marks the D form. Side chains are listed from the residue outwards. Ends that are not written are not given here. * marks the point of attachment. C18 = C18 fatty acid (C16-C22 fatty acids conjugated via γGlu/8-amino-3,6-dioxaoctanoic acid spacers); C20 diacid = O=C(O)CCCCCCCCCCCCCCCCCCC(=O)*; γGlu = O=C(O)[C@H](CCC(=O)[*:2])N[*:1]; αMeL = CC(C)C[C@](C)(N)C(=O)O; AEEA = NCCOCCOCC(=O)O; Aib = CC(C)(N)C(=O)O

How the values were obtained:
[1] = Body weight loss in normal C57BL/6 mice, subcutaneous dosing; assay type: in vivo; settings: for Weight loss (%): normal mice
Procedure: To confirm the therapeutic effect of the peptide in vivo, polypeptides were administered to mice to measure changes in body weight. […] The peptides were delivered at 0.02% polysorbate 80 (PS80) in PBS and dosing volume was 10 mL/kg. Body weight was monitored 6 h, QD.
To confirm the therapeutic effect of the peptide in obesity, diabetes, or NASH, polypeptides were administered to mice to measure changes in food intake, blood glucose and body weight. […] In addition, a NASH animal model was prepared by feeding a high fat, high fructose, high cholesterol diet to normal C57BL/6 mice (approximately 6 weeks old) for approximately 21 weeks, and increasing the body weights of the mice to approximately 50 g on average. Thereafter, polypeptides were administered by subcutaneous injection at dose of 20 nmol/kg once every other day for 2 weeks. Body weight and food intake were measured once every other day given points of time. After 2 weeks of treatment period, mice were sacrificed, then liver weight, hepatic triglyceride, and NASH related biomarkers were measured.
DD01 administered at 40 nmol/kg, s.c. Q2D as positive control was delivered at 0.02% PS80 in PBS and dosing volume was 10 mL/kg. Body weight was monitored QD for 4 days.
The peptides were delivered at 0.02% PS80 in PBS and dosing volume was 10 mL/kg. Food intake, blood glucose, and body weight changes were monitored QD.

human GLP-1R = target: T1, human GLP-1R (Homo sapiens, UniProt P43220); assay: cAMP assay (HitHunter cAMP) in GLP-1R-expressing CHO-K1 cells (GLP-1R+ cells); assay type: cell-based
T1 construct: host or cells: CHO-K1
Procedure: (§1) The cells were seeded in a 96-well plate at 7×10^3 cells/well using cell plate reagent and incubated the cells overnight at 37° C. and 5% CO2. To perform the cAMP detection assay, cell plating reagent were replaced with the cAMP Assay buffer. Each of the wells was then treated with the diluted peptide and incubated for 30 minutes under conditions of a temperature of 37° C. in a CO2 incubator.
(§2) After the incubation, cAMP Antibody reagent and Working cAMP detection solution to all wells. Incubate the plate for 1 hour at Room temperature in the dark. Then, cAMP Solution A was added and incubated for 3 hours at room temperature in the dark. Subsequently, the luminescence was measured using the microplate reader device.

human GCGR = target: T2, human GCGR (Homo sapiens, UniProt P47871); assay: cAMP assay (HitHunter cAMP) in GCGR-expressing CHO-K1 cells (GCGR+ cells); assay type: cell-based
T2 construct: host or cells: CHO-K1
Procedure: as §1, §2

human GIPR = target: T3, human GIPR (Homo sapiens, UniProt P48546); assay: cAMP assay (HitHunter cAMP) in GIPR-expressing CHO-K1 cells (GIPR+ cells); assay type: cell-based
T3 construct: host or cells: CHO-K1
T3 sequence (P48546 22-466): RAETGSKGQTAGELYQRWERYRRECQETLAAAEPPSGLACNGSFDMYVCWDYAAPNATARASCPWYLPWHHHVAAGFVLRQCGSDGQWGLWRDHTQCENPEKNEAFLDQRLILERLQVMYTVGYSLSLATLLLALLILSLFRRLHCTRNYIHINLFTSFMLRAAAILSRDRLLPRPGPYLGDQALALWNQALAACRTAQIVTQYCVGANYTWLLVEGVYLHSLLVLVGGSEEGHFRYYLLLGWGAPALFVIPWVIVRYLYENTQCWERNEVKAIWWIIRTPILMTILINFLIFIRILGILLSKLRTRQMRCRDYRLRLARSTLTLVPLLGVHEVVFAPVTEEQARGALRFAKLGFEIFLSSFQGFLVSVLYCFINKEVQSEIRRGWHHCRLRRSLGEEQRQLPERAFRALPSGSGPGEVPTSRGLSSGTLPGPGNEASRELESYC
Procedure: as §1, §2

[2] = 20 nmol/kg QD, after 48 or 72 hours
[3] = 20 nmol/kg QD, Weight loss at 48 hr
[4] = Table 13, EC50 of STD peptide over EC50 of peptide
[5] = Table 14, normalised to activity at GLP-1R

T1 sequence (P43220 24-463): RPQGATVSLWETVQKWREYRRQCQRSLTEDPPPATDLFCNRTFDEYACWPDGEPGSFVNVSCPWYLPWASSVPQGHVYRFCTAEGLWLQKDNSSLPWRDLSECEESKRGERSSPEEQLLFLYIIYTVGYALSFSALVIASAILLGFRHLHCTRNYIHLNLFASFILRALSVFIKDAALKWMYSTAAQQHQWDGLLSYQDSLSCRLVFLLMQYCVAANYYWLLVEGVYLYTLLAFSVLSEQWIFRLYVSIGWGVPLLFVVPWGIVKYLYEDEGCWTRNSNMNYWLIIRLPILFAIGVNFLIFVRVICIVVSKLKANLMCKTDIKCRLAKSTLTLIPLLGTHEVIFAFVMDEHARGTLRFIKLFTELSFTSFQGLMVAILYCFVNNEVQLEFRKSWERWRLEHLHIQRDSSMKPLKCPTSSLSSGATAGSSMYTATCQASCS
T2 sequence (P47871 26-477): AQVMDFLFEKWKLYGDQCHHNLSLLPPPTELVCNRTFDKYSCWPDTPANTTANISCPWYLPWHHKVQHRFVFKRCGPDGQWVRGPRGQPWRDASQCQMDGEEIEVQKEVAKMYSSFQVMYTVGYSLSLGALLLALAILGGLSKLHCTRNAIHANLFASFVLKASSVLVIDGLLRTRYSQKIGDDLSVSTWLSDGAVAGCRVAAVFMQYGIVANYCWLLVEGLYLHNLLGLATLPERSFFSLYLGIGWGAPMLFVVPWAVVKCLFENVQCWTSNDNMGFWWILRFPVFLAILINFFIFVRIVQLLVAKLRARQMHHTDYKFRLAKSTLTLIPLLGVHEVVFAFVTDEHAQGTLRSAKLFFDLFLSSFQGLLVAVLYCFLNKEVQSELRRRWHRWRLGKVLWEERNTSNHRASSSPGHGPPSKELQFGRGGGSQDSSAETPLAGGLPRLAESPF

Compound: 5-3A: Peptide No. 5-3 lipidated via conjugation to C-terminal cysteine (type A) (Y[Aib]QGTFTSDYSKLLDYMMQRDFVQWLLEGGPSSGAPPPSC([AEEA-AEEA-γGlu-C18])-NH2)
- body weight loss effect, in words ([1]; Example 5, 20 nmol/kg s.c. QD, 4 days): least effect
- Weight loss (%) [1, 2]: 5.5 ± 1.6%

Compound: YAibQGT FTSDY SKYLD YK*MAR DFVQW LIEGG PSSGA PPPS (Y[Aib]QGTFTSDYSKYLDYK([AEEA-AEEA-γGlu-C18])MARDFVQWLIEGGPSSGAPPPS-NH2) [5-1F, K* = lysine lipidated with 2OEG-γGlu-C18]
- Weight loss (%) [1, 3]: 21.9 ± 2.5%

Compound: 12-2A: Peptide No. 12-2 lipidated via conjugation to C-terminal cysteine (type A) (Y[Aib]QGTFTSDWSKYLDQQMQQDFVDWLINGGPSSGAPPPSC([AEEA-AEEA-γGlu-C18])-NH2)
- Weight loss (%) [1, 2]: 2.0 ± 0.9%

Compound: 12-7A: Peptide No. 12-7 lipidated via conjugation to C-terminal cysteine (type A) (H[Aib]EGTFTSDWSKYLDQQMAQDFVDWLINGGPSSGAPPPSC([AEEA-AEEA-γGlu-C18])-NH2)
- Weight loss (%) [1, 2]: 9.5 ± 3.0%

Compound: HAibQGT FTSDY SK*YLD YMMQRDFVQWLIEGGPSSGAPPPS (H[Aib]QGTFTSDYSK([AEEA-AEEA-γGlu-C18])YLDYMMQRDFVQWLIEGGPSSGAPPPS-NH2) [5-4D, K* = lysine lipidated with 2OEG-γGlu-C18]
- Weight loss (%) [1, 3]: 7.2 ± 0.9%

Compound: 12-1A: Peptide No. 12-1 lipidated via conjugation to C-terminal cysteine (type A) (Y[Aib]QGTFTSDWSKYLDQQMAQDFVDWLINGGPSSGAPPPSC([AEEA-AEEA-γGlu-C18])-NH2)
- Weight loss (%) [1, 2]: 9.0 ± 2.2%

Compound: 12-5A: Peptide No. 12-5 lipidated via conjugation to C-terminal cysteine (type A) (H[Aib]QGTFTSDWSKYLDQQMQQDFVDWLLNGGPSSGAPPPSC([AEEA-AEEA-γGlu-C18])-NH2)
- Weight loss (%) [1, 2]: 5.4 ± 0.9%

Compound: HAibQGT FTSDY SK*LLD YMMQRDFVQWLLEGGPSSGAPPPS (H[Aib]QGTFTSDYSK([AEEA-AEEA-γGlu-C18])LLDYMMQRDFVQWLLEGGPSSGAPPPS-NH2) [5-5D, K* = lysine lipidated with 2OEG-γGlu-C18]
- Weight loss (%) [1, 3]: 10.3 ± 1.3%

Compound: 12-4A: Peptide No. 12-4 lipidated via conjugation to C-terminal cysteine (type A) (H[Aib]QGTFTSDWSKYLDQQMQQDFVDWLINGGPSSGAPPPSC([AEEA-AEEA-γGlu-C18])-NH2)
- Weight loss (%) [1, 2]: 4.3 ± 0.9%

Compound: 12-3A: Peptide No. 12-3 lipidated via conjugation to C-terminal cysteine (type A) (Y[Aib]QGTFTSDWSKYLDQQMQQDFVDWLLNGGPSSGAPPPSC([AEEA-AEEA-γGlu-C18])-NH2)
- Weight loss (%) [1, 2]: 0.2 ± 1.8%

Compound: 5-4A: Peptide No. 5-4 lipidated via conjugation to C-terminal cysteine (type A) (H[Aib]QGTFTSDYSKYLDYMMQRDFVQWLIEGGPSSGAPPPSC([AEEA-AEEA-γGlu-C18])-NH2)
- Weight loss (%) [1, 2]: 8.3 ± 0.9%

Compound: Y-Aib-QGTFTSDYSI-αMeL-LDKK((2-[2-(2-amino-ethoxy)-ethoxy]-acetyl)-(γGlu)-CO-(CH2)18-CO2H)AQ-Aib-AFIEYLLE-Aib-GPSS-Aib-APPPS-NH2 (Y[Aib]QGTFTSDYSI[αMeL]LDKK([AEEA-γGlu-C20 diacid])AQ[Aib]AFIEYLLE[Aib]GPSS[Aib]APPPS-NH2; N-terminus assumed; SMILES CC[C@H](C)[C@H](NC(=O)[C@H](Cc1ccccc1)NC(=O)[C@H](C)NC(=O)C(C)(C)NC(=O)[C@H](CCC(N)=O)NC(=O)[C@H](C)NC(=O)[C@H](CCCCNC(=O)COCCOCCNC(=O)CC[C@H](NC(=O)CCCCCCCCCCCCCCCCCCC(=O)O)C(=O)O)NC(=O)[C@H](CCCCN)NC(=O)[C@H](CC(=O)O)NC(=O)[C@H](CC(C)C)NC(=O)[C@](C)(CC(C)C)NC(=O)[C@@H](NC(=O)[C@H](CO)NC(=O)[C@H](Cc1ccc(O)cc1)NC(=O)[C@H](CC(=O)O)NC(=O)[C@H](CO)NC(=O)[C@@H](NC(=O)[C@H](Cc1ccccc1)NC(=O)[C@@H](NC(=O)CNC(=O)[C@H](CCC(N)=O)NC(=O)C(C)(C)NC(=O)[C@@H](N)Cc1ccc(O)cc1)[C@@H](C)O)[C@@H](C)O)[C@@H](C)CC)C(=O)N[C@@H](CCC(=O)O)C(=O)N[C@@H](Cc1ccc(O)cc1)C(=O)N[C@@H](CC(C)C)C(=O)N[C@@H](CC(C)C)C(=O)N[C@@H](CCC(=O)O)C(=O)NC(C)(C)C(=O)NCC(=O)N1CCC[C@H]1C(=O)N[C@@H](CO)C(=O)N[C@@H](CO)C(=O)NC(C)(C)C(=O)N[C@@H](C)C(=O)N1CCC[C@H]1C(=O)N1CCC[C@H]1C(=O)N1CCC[C@H]1C(=O)N[C@@H](CO)C(N)=O) [EL.EX.14, reference compound]
- Weight loss (%) ([1]; 10 nmol/kg QD, after 48 or 72 hours): 11.0 ± 2.4%

Compound: CC[C@H](C)[C@H](NC(=O)[C@H](CC(C)C)NC(=O)[C@H](Cc1c[nH]c2ccccc12)NC(=O)[C@H](CCC(N)=O)NC(=O)[C@@H](NC(=O)[C@H](Cc1ccccc1)NC(=O)[C@H](CC(=O)O)NC(=O)[C@H](CCCNC(=N)N)NC(=O)[C@H](C)NC(=O)[C@H](CCSC)NC(=O)[C@H](CCSC)NC(=O)[C@H](Cc1ccc(O)cc1)NC(=O)[C@H](CC(=O)O)NC(=O)[C@H](CC(C)C)NC(=O)[C@H](Cc1ccc(O)cc1)NC(=O)[C@H](CCCCNC(=O)CCCC[C@@H]1SC[C@@H]2NC(=O)N[C@@H]21)NC(=O)[C@H](CO)NC(=O)[C@H](Cc1ccc(O)cc1)NC(=O)[C@H](CC(=O)O)NC(=O)[C@H](CO)NC(=O)[C@@H](NC(=O)[C@H](Cc1ccccc1)NC(=O)[C@@H](NC(=O)CNC(=O)[C@H](CCC(N)=O)NC(=O)C(C)(C)NC(=O)[C@@H](N)Cc1c[nH]cn1)[C@@H](C)O)[C@@H](C)O)C(C)C)C(=O)N[C@@H](CCC(=O)O)C(=O)NCC(=O)NCC(=O)N1CCC[C@H]1C(=O)N[C@@H](CO)C(=O)N[C@@H](CO)C(=O)NCC(=O)N[C@@H](C)C(=O)N1CCC[C@H]1C(=O)N1CCC[C@H]1C(=O)N1CCC[C@H]1C(=O)N[C@@H](CO)C(=O)N[C@@H](CSC1CC(=O)N(CCNC(=O)COCCOCCNC(=O)COCCOCCNC(=O)CC[C@H](NC(=O)CCCCCCCCCCCCCCCCC(=O)O)C(=O)O)C1=O)C(N)=O (stereo partly shown) [5B, HAibQGT FTSDY SB*YLD YMMARDFVQWLIEGGPSSGAPPPSC*]
- Activity relative to STD peptide (%), GLP-1 (human GLP-1R; [4]): 87%
- Activity relative to GLP-1 (%), GLP-1 (human GLP-1R; [5]): 100%
- Activity relative to STD peptide (%), Glucagon (human GCGR; [4]): 5%
- Activity relative to GLP-1 (%), Glucagon (human GCGR; [5]): 6%
- Activity relative to STD peptide (%), GIP (human GIPR; [4]): 2%
- Activity relative to GLP-1 (%), GIP (human GIPR; [5]): 2%
